Assay results from patent US20230295145A1, “PYRROLIDINE DERIVATIVES AND METHODS OF USE” (Genentech, Inc., priority 2020, published 2023).
Where two headings read alike, the source gives them in different places.

Experiments:
[1] = test system: NCI-H2030; assay: Cell Viability Assay (CellTiter-Glo); type: cell-based; conditions: 5 days
Description: (§1) Cell lines were cultured in RPMI-1640, 5% fetal bovine serum, and 2 mM glutamine in a humidified incubator maintained at 37° C. with 5% CO2. Cells were assessed with a Vi-CELL Cell Viability Analyzer (Beckman Coulter; Brea, CA); viability of at least 90% was required for screening. A Multidropä Combi Reagent Dispenser (Thermo Scientific; Waltham, MA) was used to plate cells into Falcons^â 384-well, black, clear-bottom plates (Catalog No. 353962; Corning; Tewksbury, MA) using seeding densities previous determined to achieve approximately 80% confluence at the final time point of the assay. The compounds were prepared at 1000× in advance using an Echo 555 liquid handler (Labcyte; Sunnyvale, CA) and stored in −80° C. until the day of compound addition. On the following day, cells were treated with compounds at final assay concentration 1 uM and 10 uM using a Bravo Automated Liquid-Handling Platform (Agilent; Santa Clara, CA). After 5 days, 25 mL CellTiter-Glo^â reagent was added using a MultiFloä Microplate Dispenser (BioTek; Winooski, VT). Cell lysis was induced by mixing for 30 minutes on an orbital shaker; plates were then incubated at room temperature for 10 minutes to stabilize the luminescent signal. Luminescence was read by a 2104 EnVision^â Multilabel Plate Reader (PerkinElmer; Waltham, MA).
(§2) The data was processed using Genedata Screener^â, Version 15 (Genedata; Basel, Switzerland) to assess compound effects on viability. Compound treated wells were normalized to the median value of 14 DMSO control wells on the same 384 well plate.

[2] = biological target: T1, VHL (Homo sapiens, UniProt P40337); assay: VHL HEK-293 BRET Assay (VHL NanoBRET Target Engagement Assay); type: cell-based; conditions: HEK 293 RT VHL-NanoLuc stable cells; read-out: IC50
T1 construct: expressed in transfected cells
Description: The VHL NanoBRET™ Target Engagement Assay analyzes the apparent affinity of test compounds for VHL in cells by competitive displacement of a VHL NanoBRET™ tracer reversibly bound to a NanoLuc® VHL fusion protein stably expressed in the cells.
Test compounds were transferred to the assay plate (384 Well White Non-Binding Corning Assay Plates (Corning-3574)) using an Echo 555 Liquid Handler (Labcyte) in 2.5 nL increments and, as appropriate, intermediate stock concentrations of compounds, in order to prepare a titration series. 50 nL of control compound (10 mM; parental unlabeled VHL antagonist; see structure below) and 50 nL of DMSO (negative control) were dispensed into the appropriate control wells. DMSO was backfilled to a final volume of 50 nL as required. 50 nl per well of 1 mM VHL NanoBRET™ Tracer in DMSO (NanoBRET™ Tracer-PEG2-590 (see structure below)) was transferred into each well using an Echo 555 (ultimately yielding a final concentration of 1 uM). HEK 293 RT VHL-NanoLuc® stable cells were cultured in DMEM High Glucose with Pyruvate, 10% fetal bovine serum, 2 mg/mL of Geneticin Selective Antibiotic (50 mg/mL) and 2 mM HEPES (1 M). Cells were seeded in Opti-MEM (Life Technologies-11058-021), 1.7×10^5 cells/mL, 40 μl per well into the assay plate, centrifuged at 500 rpm for 30 seconds and incubated for 2 hours. Max Signal control wells consisted of DMSO only treated wells. Minimum Signal control wells contained of 10 uM parental unlabeled VHL antagonist (control compound—see structure below). 3× Complete Substrate plus Inhibitor Solution was prepared in Opti-MEM (consists of a 1:166 dilution of NanoBRET™ Nano-Glo® Substrate plus a 1:500 dilution of Extracellular NanoLuc® Inhibitor in Opti-MEM), and 20 ul was dispensed into each well of the 384-well plate and centrifuged at 1000 rpm for 1 minute, then incubated for 2 minutes at room temperature. Background Signal control wells were prepared without tracer for background correction steps.
Plates were read using a PerkinElmer Envision Reader (model 2104-0020) equipped with Luminescence option (Mirror: BRET2 Enh (PE Barcode 659), Emission Filter: Omega 610LP (Barcode 504), 2nd Emission Filter: Umbelliferone 460 (Barcode 207), Measurement height: 6.5 mm, Measurement time: 1 s). The raw BRET ratio values were calculated by dividing the acceptor emission value (610 nm) by the donor emission value (460 nm) for each sample. To correct for background, the BRET ratio in the absence of tracer (average of no-tracer control samples) was subtracted from the BRET ratio of each sample. Raw BRET units were converted to milliBRET units (mBU) by multiplying each raw BRET value by 1,000. The normalized NanoBRET™ signal was calculated relative to the Max Signal control wells (DMSO treated control wells) and the Minimum Signal control wells. Percentage inhibition was calculated relative to the Minimum Signal control and Maximum Signal control wells. IC50 values were derived by four parameter curve fitting using the Robust method.

[3] = test system: HCC366; assay: Cell Viability Assay (CellTiter-Glo); type: cell-based; conditions: 10 μM, 5 days
Description: as §1, §2

[4] = biological target: T1, VHL; assay: VHL HEK-293 BRET Assay (VHL NanoBRET Target Engagement Assay); type: cell-based; conditions: IC50 values measured in the presence of digitonin; HEK 293 RT VHL-NanoLuc stable cells; read-out: IC50 + Digi (μM)*
[5] = test system: PANC-1; assay: Cell Viability Assay (CellTiter-Glo); type: cell-based; conditions: 10 μM, 5 days
Description: as §1, §2

[6] = test system: CAL-120; assay: Cell Viability Assay (CellTiter-Glo); conditions: 1 μM, 5 days
Description: as §1, §2

T1 sequence (P40337 whole entry): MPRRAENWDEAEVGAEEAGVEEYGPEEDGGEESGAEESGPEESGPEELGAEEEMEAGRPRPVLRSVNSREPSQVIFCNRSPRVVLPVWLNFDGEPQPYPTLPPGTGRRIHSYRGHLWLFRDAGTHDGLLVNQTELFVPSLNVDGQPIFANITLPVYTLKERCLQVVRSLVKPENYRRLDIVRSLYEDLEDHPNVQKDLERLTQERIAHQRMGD

| SMILES | Normalized viability % DMSO ([1]; 1 μM) [% DMSO] | IC50 [2] [µM] | Normalized viability % DMSO [3] [% DMSO] | IC50 [4] [µM] | Normalized viability % DMSO [5] [% DMSO] | Normalized viability % DMSO [6] [% DMSO] | Normalized viability % DMSO ([1]; 10 μM) [% DMSO] |
| --- | --- | --- | --- | --- | --- | --- | --- |
| CNC(=O)[C@@H]1C[C@@H](O)CN1C(=O)[C@@H](n1cc(-c2cccc(C(F)(F)F)c2)nn1)C(C)(C)C [Compound 974, (2S,4R)-1-[(2S)-3,3-dimethyl-2-[4-[3-(trifluoromethyl)phenyl]triazol-1-yl]butanoyl]-4-hydroxy-N-methyl-pyrrolidine-2-carboxamide] | 15.3 | – | – | – | – | – | – |
| CC(C)(C)[C@@H](C(=O)N1C[C@H](O)C[C@H]1C(=O)NC1CN(c2ccncc2)C1)n1cc(C2CC2)nn1 [Compound 445, (2S,4R)-1-[(2S)-2-(4-cyclopropyltriazol-1-yl)-3,3-dimethyl-butanoyl]-4-hydroxy-N-[1-(4-pyridyl)azetidin-3-yl]pyrrolidine-2-carboxamide] | – | 26.7 | 5.2 | 22.3 | – | – | – |
| Cc1ccc(N2CCC[C@H]2CNC(=O)[C@@H]2C[C@@H](O)CN2C(=O)[C@@H](n2cc(C3CC3)nn2)C(C)(C)C)cc1 [Compound 462, (2S,4R)-1-[(2S)-2-(4-cyclopropyltriazol-1-yl)-3,3-dimethyl-butanoyl]-4-hydroxy-N-[[(2S)-1-(p-tolyl)pyrrolidin-2-yl]methyl]pyrrolidine-2-carboxamide] | – | 2.82 | 11.3 | 5.35 | – | – | – |
| CC(C)(NC(=O)[C@@H]1C[C@@H](O)CN1C(=O)[C@@H](n1cc(C2CC2)nn1)C(C)(C)C)c1cccc(C#N)c1 [Compound 561, (2S,4R)-N-[1-(3-cyanophenyl)-1-methyl-ethyl]-1-[(2S)-2-(4-cyclopropyltriazol-1-yl)-3,3-dimethyl-butanoyl]-4-hydroxy-pyrrolidine-2-carboxamide] | – | 0.928 | 12.5 | 1.64 | – | – | – |
| CCC(NC(=O)[C@@H]1C[C@@H](O)CN1C(=O)[C@@H](n1cc(C2CC2)nn1)C(C)(C)C)c1noc(-c2cccc(Br)c2)n1 (stereo partly drawn) [Compound 617, (2S,4R)-N-[1-[5-(3-bromophenyl)-1,2,4-oxadiazol-3-yl]propyl]-1-[(2S)-2-(4-cyclopropyltriazol-1-yl)-3,3-dimethyl-butanoyl]-4-hydroxy-pyrrolidine-2-carboxamide] | – | 0.829 | – | 1.35 | 69.8 | – | – |
| CC(C)(C)[C@@H](C(=O)N1C[C@H](O)C[C@H]1C(=O)N[C@H]1CC[C@H](c2nc3ccccc3o2)CC1)n1cc(C2CC2)nn1 [Compound 106, (2S,4R)-N-[4-(1,3-benzoxazol-2-yl)cyclohexyl]-1-[(2S)-2-(4-cyclopropyltriazol-1-yl)-3,3-dimethyl-butanoyl]-4-hydroxy-pyrrolidine-2-carboxamide] | – | 3.37 | 6.0 | 4.41 | – | – | – |
| CNC(=O)[C@@H]1C[C@@H](O)CN1C(=O)[C@@H](n1cc(CN(C)c2ccccc2)nn1)C(C)(C)C [Compound 842, (2S,4R)-1-[(2S)-3,3-dimethyl-2-[4-[(N-methylanilino)methyl]triazol-1-yl]butanoyl]-4-hydroxy-N-methyl-pyrrolidine-2-carboxamide] | – | – | – | – | – | 18.5 | – |
| CCC(CNC(=O)[C@@H]1C[C@@H](O)CN1C(=O)[C@@H](n1cc(C2CC2)nn1)C(C)(C)C)Oc1cccc(C(F)(F)F)c1 (stereo partly drawn) [Compound 493, (2S,4R)-1-[(2S)-2-(4-cyclopropyltriazol-1-yl)-3,3-dimethyl-butanoyl]-4-hydroxy-N-[2-[3-(trifluoromethyl)phenoxy]butyl]pyrrolidine-2-carboxamide] | – | 3.68 | – | 5.56 | 51.8 | – | – |
| CC(Cc1ccc(Br)cc1F)NC(=O)[C@@H]1C[C@@H](O)CN1C(=O)[C@@H](n1cc(C2CC2)nn1)C(C)(C)C (stereo partly drawn) [Compound 556, (2S,4R)-N-[2-(4-bromo-2-fluoro-phenyl)-1-methyl-ethyl]-1-[(2S)-2-(4-cyclopropyltriazol-1-yl)-3,3-dimethyl-butanoyl]-4-hydroxy-pyrrolidine-2-carboxamide] | – | 0.55 | – | 2.52 | – | – | 50.4 |
